Experimental data reported in PubChem BioAssay AID2060362 (Molecular Pharmacology Branch, DTP, NCI, 2025).
Values joined by “and” are separate entries in the source; they are usually repeats but may differ in a detail not shown here. Equal entries are not always repeated. Active and inactive are the calls of the source. Rule for the calls: active = viability on the fitted dose curve at most 10% of control; inactive = the rest.

Test system: 128128-338-R-J1-PDC spheroids, viability % test/control
Assay: Anticancer human tumor 128128-338-R-J1-PDC patient-derived melanoma cell line growth inhibition [TAK]
Conditions: spheroids with HUVEC and MSC; for viability, T/C: stronger effect = lower value
Excerpt: Combinatorial screen of targeted agents with TAK-243 and ipatasertib in multi-cell type tumor spheroids
A high-throughput screen of multi-cell type tumor spheroids was designed to identify active combinations of targeted small molecules and TAK-243 or ipatasertib. Complex spheroids include a stromal component modeled by human endothelial cells (HUVEC) and fibroblasts modeled by human mesenchymal stem cells (MSCs). The concentration ranges selected for each drug and investigational agent were based upon clinically achievable concentrations if the clinical Cmax of the agent was known.
Compounds. The drugs and investigational agents: TAK-243 (785004), ipatasertib (767898), everolimus (733504), selumetinib (741078), bortezomib (756655), trametinib (758246), ixazomib (758254), vemurafenib (761431), dabrafenib (764134), sapanisertib (764658), alpelisib (765974), and copanlisib (816437), were obtained from the National Cancer Institute (NCI) Developmental Therapeutics Program Chemical Repository. The FDA-approved anticancer drug set is available from the NCI Developmental Therapeutics Program. […] The stock solutions were prepared in dimethyl sulfoxide (DMSO, Sigma-Aldrich, St. Louis, MO, cat. D2650) at 800-fold the tested concentration and stored at -70 degrees C prior to their use. All drugs and investigational agents were tested over a range starting from a high concentration at or near the clinical Cmax and decreasing in half-log increments. If the clinical Cmax for an agent had not been determined, the highest concentration tested was 10 microM.
NCI60 Cell Culture. NCI60 cell lines were obtained from the NCI Developmental Therapeutics Program Tumor Repository. For each lot of cells, the Repository performed Applied Biosystems AmpFLSTR Identifiler testing with PCR amplification to confirm consistency with the published Identifier STR profile for each cell line. Cells were kept in continuous culture for no more than 20 passages. The optimal seeding densities for each of the cell lines at each time point assessed were determined prior to performing the concentration response studies. Briefly, the NCI60 human tumor lines were grown as monolayers in RPMI 1640 medium supplemented with 10% FBS and 2 mmol/L L-glutamine.
An additional 2 lines were from the NCI60 cell line panel including melanomas, MALME-3M and SK-MEL-2. Pooled donor human umbilical vein endothelial cells (HUVEC, Lonza, cat. CC-2519) and human mesenchymal stem cells (hMSC, Lonza, cat. PT-2501) were purchased from Lonza (Walkersville, MD).
PDMR cell lines were grown in complete medium (DC medium): Dulbecco's modified Eagle's medium (DMEM)/F12 supplemented with 5% fetal bovine serum (FBS), 2 mM L-glutamine, 100 U/mL penicillin and 100 µg/ml streptomycin, 0.4 µg/ml hydrocortisone, 10 ng/ml epidermal growth factor (EGF) recombinant human protein, 24 µg/mL adenine, and 0.1 mg/mL primocin. During culture from frozen stock vials, PDMR cells were cultured in the same medium containing 10 µM Y-27632 (see Table 3). The PDCs were cultured in complete DMEM/F12 media without 10 microM Y-27632 dihydrochloride for at least two passages prior to the screen. The pooled donor HUVEC and hMSC were cultured in endothelial cell growth medium 2 (PromoCell, Heidelberg, Germany, cat. C-22011) and mesenchymal stem cell growth medium 2 (PromoCell, cat. C-28009), respectively. For all experiments, HUVEC and hMSC were used at passages </=5.
For the pre-screen, cell seeding densities were determined from a titration spanning the range from 5,000 to 313 cells per well. The mct-spheroids including 60% malignant cells, 25% HUVEC and 15% MSC dispensed as a mixture into U-bottom Ultra-Low Attachment 384-well plates (Corning, NY)
High-throughput Drug Combination Screening.
Prior to their inoculation into 384-well plates, malignant cells, HUVEC, and hMSC were removed from T flasks using TrypLE express (Thermo Fisher Scientific, cat. 12605036) and harvested by centrifugation for 5 min at 233 x g. […]

[1] = curve of first compound, second compound 0.3 µM
[2] = curve of first compound, second compound 0.949 µM
[3] = curve of first compound, second compound 3 µM
[4] = curve of first compound, second compound 9.49 µM
[5] = curve of first compound, second compound 30 µM
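Note: spheroids exposed to compounds for 7 days.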
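Throughout, for viability, T/C: 100% = DMSO vehicle wells.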

SMILES: CCCS(=O)(=O)Nc1ccc(F)c(C(=O)c2c[nH]c3ncc(-c4ccc(Cl)cc4)cc23)c1F + CC(C)NCC(C(=O)N1CCN(c2ncnc3c2C(C)CC3O)CC1)c1ccc(Cl)cc1
- IC50 [1]: 1070 nM
- IC50 [2]: 1110 nM
- IC50 [3]: 462 nM
- IC50 [4]: < 316 nM
- IC50 [5]: < 316 nM
- viability, T/C (second compound 0.3 µM, first compound 0.316 µM): 82.5%
- viability, T/C (second compound 0.3 µM, first compound 1 µM): 52.1%
- viability, T/C (second compound 0.3 µM, first compound 3.16 µM): 12.2%
- viability, T/C (second compound 0.3 µM, first compound 10 µM): 0.57%
- viability, T/C (second compound 0.3 µM, first compound 31.6 µM): 0.08%
- viability, T/C (second compound 0.3 µM, first compound 100 µM): 0.68%
- viability, T/C (second compound 0.949 µM, first compound 0.316 µM): 74.3%
- viability, T/C (second compound 0.949 µM, first compound 1 µM): 54.4%
- viability, T/C (second compound 0.949 µM, first compound 3.16 µM): 7.73%
- viability, T/C (second compound 0.949 µM, first compound 10 µM): 0.33%
- viability, T/C (second compound 0.949 µM, first compound 31.6 µM): 0.08%
- viability, T/C (second compound 0.949 µM, first compound 100 µM): 0.4%
- viability, T/C (second compound 3 µM, first compound 0.316 µM): 63.9%
- viability, T/C (second compound 3 µM, first compound 1 µM): 22.1%
- viability, T/C (second compound 3 µM, first compound 3.16 µM): 1.94%
- viability, T/C (second compound 3 µM, first compound 10 µM): 0.06%
- viability, T/C (second compound 3 µM, first compound 31.6 µM): 0.03%
- viability, T/C (second compound 3 µM, first compound 100 µM): 0.24%
- viability, T/C (second compound 9.49 µM, first compound 0.316 µM): 30.6%
- viability, T/C (second compound 9.49 µM, first compound 1 µM): 9.75%
- viability, T/C (second compound 9.49 µM, first compound 3.16 µM): 0.65%
- viability, T/C (second compound 9.49 µM, first compound 10 µM): 0.02%
- viability, T/C (second compound 9.49 µM, first compound 31.6 µM): 0.03%
- viability, T/C (second compound 9.49 µM, first compound 100 µM): 0.11%
- viability, T/C (second compound 30 µM, first compound 0.316 µM): 2.32%
- viability, T/C (second compound 30 µM, first compound 1 µM): 0.63%
- viability, T/C (second compound 30 µM, first compound 3.16 µM): 0.12%
- viability, T/C (second compound 30 µM, first compound 10 µM): 0.07%
- viability, T/C (second compound 30 µM, first compound 31.6 µM): 0.08%
- viability, T/C (second compound 30 µM, first compound 100 µM): 0.12%

SMILES: CC(=O)Nc1cccc(-n2c(=O)n(C3CC3)c(=O)c3c(Nc4ccc(I)cc4F)n(C)c(=O)c(C)c32)c1
- viability, T/C (compound 94.9 pM): 98.2% and 101%
- viability, T/C (compound 0.0003 µM): 97.9% and 94.4%
- viability, T/C (compound 0.000949 µM): 82.8% and 70%
- viability, T/C (compound 0.003 µM): 41.4% and 25.6%
- viability, T/C (compound 0.00949 µM): 5.07% and 3.1%
- viability, T/C (compound 0.03 µM): 2.37% and 2.18%
- IC50 (curve of compound): 2.32 nM and 1.58 nM

SMILES: COC1CC2CCC(C)C(O)(O2)C(=O)C(=O)N2CCCCC2C(=O)OC(C(C)CC2CCC(OCCO)C(OC)C2)CC(=O)C(C)C=C(C)C(O)C(OC)C(=O)C(C)CC(C)C=CC=CC=C1C (configuration not stated) + CC(C)NCC(C(=O)N1CCN(c2ncnc3c2C(C)CC3O)CC1)c1ccc(Cl)cc1
- IC50 [1]: > 100 nM
- IC50 [2]: 18.5 nM
- IC50 [3]: 7.41 nM
- IC50 [4]: 0.462 nM
- IC50 [5]: < 0.316 nM
- viability, T/C (second compound 0.3 µM, first compound 0.000316 µM): 110%
- viability, T/C (second compound 0.3 µM, first compound 0.001 µM): 99.9%
- viability, T/C (second compound 0.3 µM, first compound 0.00316 µM): 87.6%
- viability, T/C (second compound 0.3 µM, first compound 0.01 µM): 69.1%
- viability, T/C (second compound 0.3 µM, first compound 0.0316 µM): 56.6%
- viability, T/C (second compound 0.3 µM, first compound 0.1 µM): 54.4%
- viability, T/C (second compound 0.949 µM, first compound 0.000316 µM): 110%
- viability, T/C (second compound 0.949 µM, first compound 0.001 µM): 97.4%
- viability, T/C (second compound 0.949 µM, first compound 0.00316 µM): 68.8%
- viability, T/C (second compound 0.949 µM, first compound 0.01 µM): 56.4%
- viability, T/C (second compound 0.949 µM, first compound 0.0316 µM): 48.8%
- viability, T/C (second compound 0.949 µM, first compound 0.1 µM): 35.6%
- viability, T/C (second compound 3 µM, first compound 0.000316 µM): 88%
- viability, T/C (second compound 3 µM, first compound 0.001 µM): 77.4%
- viability, T/C (second compound 3 µM, first compound 0.00316 µM): 62.5%
- outcome (second compound 3 µM, first compound 0.01 µM): inactive
- outcome (second compound 3 µM, first compound 0.0316 µM): inactive
- outcome (second compound 3 µM, first compound 0.1 µM): inactive
- viability, T/C (second compound 9.49 µM, first compound 0.000316 µM): 56.3%
- viability, T/C (second compound 9.49 µM, first compound 0.001 µM): 37.2%
- viability, T/C (second compound 9.49 µM, first compound 0.00316 µM): 20.4%
- viability, T/C (second compound 9.49 µM, first compound 0.01 µM): 11.9%
- viability, T/C (second compound 9.49 µM, first compound 0.0316 µM): 9.65%
- viability, T/C (second compound 9.49 µM, first compound 0.1 µM): 9.71%
- viability, T/C (second compound 30 µM, first compound 0.000316 µM): 9.06%
- viability, T/C (second compound 30 µM, first compound 0.001 µM): 7.48%
- viability, T/C (second compound 30 µM, first compound 0.00316 µM): 3.65%
- viability, T/C (second compound 30 µM, first compound 0.01 µM): 2.31%
- viability, T/C (second compound 30 µM, first compound 0.0316 µM): 2.3%
- viability, T/C (second compound 30 µM, first compound 0.1 µM): 2.06%
